“Also recorded” adds a separate entry of the source. Read-outs that look alike come from different tables or passages of the source.

What all share (format): in vivo, rat
The subject of series [1] is Lewis rats. The series can be described thus: Liver histology for toxicity of MMP inhibitors given to controls.
Series [2] relates to Lewis rats. The series can be described thus: Liver regeneration after two-thirds partial hepatectomy (PH): liver-to-body weight ratio, Ki-67 proliferation. To be noted: for hepatocyte proliferation (ki-67) compared to respective control: day 2 after PH, intraportal infusion. As to the method:
Partial (70%) hepatectomy was performed under general anesthesia with ketamine-xylazine (80-90 mg/kg ip). For 70% partial hepatectomy, the median and left lateral lobes were removed. Buprenorphine SR (1 mg/kg) was used postoperatively for analgesia.
Liver-selective MMP-9 inhibition: Knockdown of MMP-9 was achieved by injection of one of two MMP-9 antisense oligonucleotides that were a kind gift from Ionis Pharmaceuticals (Ions No 283953 and 283973, Carlsbad, Calif.; 20 mg/kg intraperitoneally twice weekly for 4 weeks.
Systemic MMP inhibition: Doxycycline (Sigma, St. Louis), 15 mg/kg i.g., was given twice daily starting 2 days before the relevant study. Control studies were performed with the same dose of a chemically modified tetracycline, isochlorotetracycline, which is only a weak MMP inhibitor. In other experiments, MMP-2/9 was inhibited by infusing 2-[(4-biphenylsulfonyl)amino]-3-phenyl-propionic acid, 100 μg/kg/h, intraperitoneally with an Alzet mini-osmotic pump (model 2001, Durect Corporation, Cupertino Calif.).
Deparaffinized 5 μm sections of liver were treated with Bond ER-2 antigen retrieval (Leica Biosystems, Buffalo Grove, Ill.) for 20 min. After preblocking for 10 min with Rodent Block R (Cat #RBR962G, Biocare, Pacheco, Calif.), sections were incubated with antibody against Ki-67 for 60 min. Immunohistochemistry was performed by incubating sections with rabbit-on-rodent HRP-Polymer (cat #RMR622G, Biocare) for 30 min. Slides were rinsed in Bond diaminobenzidine (Leica Biosystems) for 10 min. After counterstaining with Bond hematoxylin, slides were dehydrated and covered using a coverslip with resinous mounting medium (Leica Biosystems).
Ki-67 positive cells were determined using photographs taken with a 20×-objective in 15 lobules per rat, n=3. To assess the percentage of proliferating hepatocytes and non-parenchymal cells, slides were coded and the percentage Ki-67 positive cells was determined blindly by X.W. To determine zonation of proliferating cells, each lobule was divided into three even fields and the total number of ki-67 positive cells/field was counted.

In series [3] the test system is MMP-9. The series can be described thus: Immunoblot of hepatic pro-MMP-9 and bone marrow extracellular fluid MMP-9/pro-MMP-9 after PH. To be noted: 6 hours after PH. On the procedure: Immunoblotting. Samples from freshly isolated liver were harvested using triple lysis buffer (TLB: 50 mM Tris base, 150 mM NaCl, 3 mM sodium azide, 12 mM sodium deoxycholate, 0.1% SDS, 1% Nonidet-P40) supplemented with 2 mM phenylmethylsulphonyl fluoride (PMSF), 1 mM sodium orthovanadate and 1% protease inhibitors cocktail (Santa Cruz sc-24948). Proteins were purified by centrifugation at 15,000 g at 4° C. for 10 min and quantified using DC™ Protein Assay Kit (BioRad). The samples obtained from bone marrow extracellular fluid were preserved in PBS. For MMP-9 analysis, 100 μg of total protein was used from each sample per lane and resolved on NUPAGE™ NOVEX™ 10% Bis-Tris Protein Gels using MOPS running buffer. Proteins were transferred onto 0.45 μm nitrocellulose membranes via electroblotting using XCell II™ Blot Module (Invitrogen), for 1 h, 30V. For SDF-1 and VEGF analysis, 75 μg of total protein was used from each sample per lane and resolved on NUPAGE™ NOVEX™ 4-12% Bis-Tris Protein Gels using MES running buffer. Proteins were transferred onto 0.2 μm nitrocellulose membranes via electroblotting using Trans-blot SD Semi-Dry Transfer Cell™ (Bio-rad), for 20 min, 25V. Membranes were blocked using NAP-BLOCKER™. […] Membrane digital images were acquired with the Odyssey Infrared Imaging System (LI-COR) and analyzed using the LI-COR IMAGE STUDIO™. […]
A general note: A western blot detects proteins with antibodies after separation by electrophoresis.

The test system of series [4] is BM sprocs. The series can be described thus: Hepatic engraftment of GFP+ BM sprocs after PH (% GFP+ LSECs, EGFP bone marrow transplant). The source says:
FIG. 7D illustrates the percentage of liver sinusoidal endothelial cells (LSECs) that are bone marrow-derived, i.e. derived from BM sprocs (y-axis labeled % GFP+ LSECs). Hepatic engraftment determined as the percentage of bone marrow-derived LSECs after PH is enhanced by MMP-9 ASO or intraportal MMP inhibitor, whereas systemic inhibition of MMP by doxycycline or intraperitoneal MMP inhibitor reduces hepatic engraftment of BM sprocs. Rats were transplanted with bone marrow from a transgenic EGFP rat to allow tracking of bone marrow cells. Rats were treated with one month of ASO, 2 days of doxycycline, or infusion with the MMP inhibitor followed by partial hepatectomy. On day 2 LSECs were isolated and the percentage of GFP+ LSECs was determined by flow cytometry.
Bone marrow transplantation. BM cells were obtained from one tibia and femur from the donor. Recipients underwent 1,000 cGy total body irradiation and were injected via tail vein with 50 million BM cells. Rats received oxytetracycline (200 mg/ml) diluted 1:1,000 in the drinking water starting two days before irradiation and continuing until one week after irradiation. BM was allowed to engraft for 2 months before use. BM from Lew-Tg(CAG-EGFP)ys Lewis rats was transplanted into wild-type Lewis rats and cells were tracked by GFP expression.
LSEC isolation. LSECs were isolated by collagenase perfusion, iodixanol density gradient centrifugation, and centrifugal elutriation, as previously described (22, 23). Yields averaged 86×10^6 cells per normal rat liver (range 69-95×10^6) with average viability of 94% (range 91-96%). Purity of the cells was 99%, as determined by uptake of formaldehyde-treated serum albumin (kind gift from Bard Smedsrod, University of Tromso, Tromso, Norway), a function specific to LSECs. Cells isolated by this protocol have an appropriate range of fenestrae organized in sieve plates.
(§1) Flow cytometry. Flow cytometry was performed using a FACSCalibur (BD Biosciences). Isotype control antibodies were used to determine appropriate gates, voltages, and compensation required for multivariate flow cytometry. Cell Quest Pro software was used for analysis

Series [5] relates to BM sprocs (CD133+45+31+ cells). The series can be described thus: Recruitment of BM sprocs after PH: number in bone marrow and circulation by immunomagnetic selection and flow cytometry. To be noted: for number of circulating CXCR7+ sprocs: 6 hours after PH. As to the method: Sproc isolation. BM and circulating sprocs were isolated by immunomagnetic selection for CD133 using a CD133 Cell Isolation Kit (Miltenyi Biotec, Auburn, Calif.) and separation with an autoMACS Pro (Miltenyi Biotec, Auburn, Calif.), followed by FACS sorting for CD45 and CD31 (FIG. 26, or Supporting Fig S1).
To determine the number of sprocs in the circulation and BM from Lewis rats 6 hours after partial hepatectomy, CD133+ cells were isolated by immunomagnetic selection for CD133 from peripheral blood or BM. Cell suspensions were preblocked with FcR blocking reagent and incubated for 60 minutes with antibodies to rat CD45 and CD31. CD133+45+31+ cells were quantified by flow cytometry. In some experiments cells were also stained with antibody to rat CXCR7, to identify CD133+45+31+CXCR7+ cells in the circulation.
as §1

The test system of series [6] is infused allogeneic sprocs. The series can be described thus: Model of stem cell therapy: engraftment of infused GFP+ allogeneic sprocs after PH. To be noted: 3 months; control group 1.5%. On the procedure:
FIG. 8 graphically illustrates the percent LSECs as a function of engraftments of infused allogenic sprocs, and examines the concept that impairment of BM release of sprocs will favor engraftment of exogenously infused progenitor cells. […] When the percentage of cells derived from the GFP+ allogeneic progenitors was examined at 3 months, 1.5% were GFP+ in the control group versus 14% in the doxycycline group (data not shown). Method: rats were pre-treated with 2 days of doxycycline, 15 mg/kg intra-gastrically twice daily, followed by partial hepatectomy. 1 million sprocs were isolated from the livers of GFP+ rats and infused by tail vein injection. On day 2 and after 3 months LSECs were isolated and the number of GFP+ cells was determined by flow cytometry. Increased ischemia-reperfusion injury in Non-Alcoholic Fatty Liver Disease (NAFLD) due to impaired sdf-1 signaling to bone marrow sprocs can be attenuated by liver-selective MMP inhibition: Systemic MMP inhibition: Doxycycline (Sigma, St. Louis), 15 mg/kg i.g., was given twice daily starting 2 days before the relevant study. […] Purity of the cells was 99%, as determined by uptake of formaldehyde-treated serum albumin (kind gift from Bard Smedsrod, University of Tromso, Tromso, Norway), a function specific to LSECs. […]

As to `O=C(O)[C@@H](Cc1ccccc1)NS(=O)(=O)c1ccc(-c2ccccc2)cc1` [MMP-2/9 inhibitor, (2R)-2-[(4-Biphenylylsulfonyl)amino]-3-phenylpropionic acid], in series [1] (intraportal), the “hepatotoxicity (histology)” value is “no evidence of toxicity; also recorded: neither doxycycline nor intraportal MMP-2/9 inhibitor given to controls was hepatotoxic”. Also, the “hepatocyte proliferation (ki-67) compared to respective control” value was “enhances” in series [2] and “enhanced” in series [2] (listed as MMPi). In addition, the “increase of hepatic MMP-9 protein expression after PH” value in series [3] (intraperitoneal) and in series [3] (intraportal) was “abrogated the increase in hepatic MMP-9 expression” each time. Moreover, the “hepatic engraftment of BM sprocs (% GFP+ LSECs)” value in series [4] (intraperitoneal) is on record as “reduced”; in series [4] (intraperitoneal, listed as MMP inhibitor), “reduces”; in series [4] (intraportal) it was “enhanced”. Besides, in series [4] (intraperitoneal), the “reduction of hepatic engraftment of BM sprocs compared to control/PH” value was 36%. In addition, the “increase of hepatic engraftment of GFP+ BM sprocs compared to control/PH” value in series [4] (intraportal) worked out at 45%. In addition, the “number of circulating CXCR7+ sprocs” value in series [5] (intraperitoneal) is “reduced”; in series [5] (intraportal infusion) it was “increased”. Further, the “reduction of CXCR7+ sprocs mobilized to the circulation” value in series [5] (after PH, intraperitoneal) was 86%. Besides, the “increase of CXCR7+ sprocs in the circulation” value in series [5] (after PH, intraportal infusion) is reported as 110%.

As for `C[C@H]1c2cccc(O)c2C(=O)C2=C(O)[C@]3(O)C(=O)C(C(N)=O)=C(O)[C@@H](N(C)C)[C@@H]3[C@@H](O)[C@@H]21` [doxycycline, Doxycycline], the “hepatotoxicity (histology)” value in series [1] was “neither doxycycline nor intraportal MMP-2/9 inhibitor given to controls was hepatotoxic”. For the same compound, the “hepatotoxicity (histology)” value in series [1] (listed as coxycycline) is on record as “no evidence of toxicity”. In addition, the “reduction of liver-to-body weight ratio compared to its solvent control” value in series [2] (day 5 after two-thirds PH, doxycycline for 2 days before PH (systemic)) is on record as 29%. For the same compound, the “percentage of GFP+ LSECs derived from infused allogeneic progenitors” value in series [6] is 14%. In addition, the “reduction of hepatic engraftment of BM sprocs compared to control/PH” value in series [4] (systemic) stood at 58%. Also, in series [5] (after PH, systemic), the “reduction of CXCR7+ sprocs mobilized to the circulation” value was found to be 90% and the “reduction of mobilization of BM sprocs to the circulation” value is 72%.

In the case of isochlorotetracycline, in series [4], the “hepatic engraftment of BM sprocs (% GFP+ LSECs)” value is “no effect”.

These data come from patent publication US20210261971A1, “COMPOSITIONS AND METHODS FOR AMELIORATING TISSUE INJURY, ENHANCING LIVER REGENERATION AND STEM CELL THERAPIES” (UNIVERSITY OF SOUTHERN CALIFORNIA, priority 2018, published 2021).
